Data from patent US8466177B2 (priority 2007, dated 2013).
Like-named read-outs stand apart in the source and are kept apart here.

Key:
A/Aichi/68 (H3N2) = assay: microbe, parasite or virus in culture; format: cell-based; settings: Influenza A virus, H3N2, MDCK
[1] = system: influenza virus (A/Udorn/72, H3N2); format: cell-based; settings: 10 μM
B/Lee/40 (type B) = assay: microbe, parasite or virus in culture; format: cell-based; settings: Influenza B virus, MDCK
A/PR/8/34 (H1N1) = assay: microbe, parasite or virus in culture; format: cell-based; settings: Influenza A virus, MDCK
A/Udorn/72, H3N2 = format: cell-based, influenza virus; settings: 50 nM
A/Udorn/72 (H3N2) = assay: microbe, parasite or virus in culture; format: cell-based, influenza virus
[2] = system: recombinant influenza virus hemagglutinin (A/Wyoming/3/03); format: biochemical; settings: 5 μM

Compound	EC50 (A/Aichi/68 (H3N2)) [nM]	effect on membrane fusion [1]	EC50 (B/Lee/40 (type B)) [nM]	EC50 (A/PR/8/34 (H1N1)) [nM]	virus yield, cell cultures treated after inoculation (A/Udorn/72, H3N2)	EC50 (A/Udorn/72 (H3N2)) [nM]	EC50 (A/Udorn/72 (H3N2); Influenza A virus, H3N2, MDCK) [nM]	effect on HA stability (trypsin digestion) [2]
O=C1/C(=C/c2ccc(-c3ccc(F)cc3)o2)SC(=S)N1C1CCCCC1 [A1, (Z)-3-Cyclohexyl-5-{[5-(4-fluorophenyl)furan-2-yl]-methylene}-2-thioxothiazolidin-4-one]	1	inhibitory effects	1	0.6	decreased virus yield	0.4	≤ 0.4	destabilization effects
Cc1ccc(-c2ccc(/C=C3\SC(=S)N(C4CCCCCCC4)C3=O)o2)cc1 [A17, (Z)-3-cyclooctyl-5-{[(4-methylphenyl)furan-2-yl]methylene}-2-thioxothiazolidin-4-one]					decreased virus yield			
